These results are taken from patent US7550438B2, “Methods for production of growth-promoting proteins and peptides for kidney epithelial cells” (The University of Chicago, priority 1997, dated 2009).

The test system of assay [1] is BSC-1 cells. Nature of the assay: Appearance or release of WGF growth-promoting activity from BSC-1 cells (scrape wounding, heparinase). The class given is cell-based, African green monkey. The note with it: cells preincubated 10 minutes with the protease inhibitor. As to the method: None of these agents inhibited cell growth when added to cells of nonwounded cultures. When added to the medium after the appearance of WGF mitogenic activity, neither PMSF nor aprotinin appeared to inhibit the increment in cell proliferation.
Confluent monolayer cultures were mechanically scraped using a 200 μL pipet tip (Continental Laboratory Products, San Diego, Calif.). […] (This process of scraping the cells has been termed “wounding” and has been used for many years as a model system to study repair of corneal abrasions of the eye. In effect, pressure is applied to cells sufficient to disrupt intercellular adhesion). To determine whether kidney epithelial cells released an autocrine growth factor into the medium after wounding, conditioned culture medium was removed from the culture dish after scrape-wounding a monolayer of BSC-1 cells. An aliquot was assayed for any growth-promoting activity on a nonwounded “detector” culture (1.2×10^6 cells per […]).
Treatment of a confluent monolayer of BSC-1 cells with the enzyme heparinase I (Sigma), but not heparinase III (Sigma), releases WGF mitogenic activity from cells into the culture media. However, this seems to deplete WGF, at least temporarily. When cells are first treated with heparinase I, rinsed, the media aspirated, and the monolayer is then scrape-wounded, no growth-promoting activity is detected in the conditioned media.

The test system of assay [2] is monkey kidney epithelial cells of the BSC-1 line. The assay is described as follows: Growth-promoting (mitogenic) activity: number of cells in BSC-1 cultures counted four days after addition. In kind it is cell-based, African green monkey. Here is the method: For the assay, cells were detached from the dish with a solution of trypsin and an aliquot was counted in a hemocytometer.
Nontransformed monkey kidney epithelial cells of the BSC-1 line were grown to confluence in Dulbecco's modified Eagle's medium containing 1% calf serum and […] in 55-mm culture dishes at 38° C. in a CO2 incubator. When cells achieved a density of about 10^6 per dish, the spent medium was removed and replaced with fresh medium containing 0.5% calf serum and the 14-amino acid peptide (0.5 μg/ml). Additions of each of the mitogenic signals at maximal concentration were made to the culture medium. Four days later the number of cells in each culture was counted in a hemocytometer. Values obtained were the mean of 3 separate cultures.
Nontransformed monkey kidney epithelial cells of the BSC-1 line were grown to confluence in Dulbecco's modified Eagle's medium containing 1% calf serum and 1.6 μM biotin at 38° C. in a CO2 incubator. When cells achieved a density of about 10^6 per dish, the spent medium was removed and replaced with fresh medium containing 0.5% calf serum and different amounts of the two peptides. Four days later the number of cells in each culture was counted. Each value is the mean of 3 separate cultures.
To delineate the sequence of the smallest peptide that could stimulate renal cell growth, synthetic peptides of different lengths were prepared (see below), and purified by reversed-phase HPLC on a C18 column.
The peptide of interest was then purified on a reversed-phase C18 column HPLC as described herein using a gradient of 1-80% acetonitrile in 0.1% trifluroacetic acid (TFA). The purified peptide was then lyophilized to remove the acetonitrile and TFA and the lyophilized powder was weighed, dissolved in buffer and added to the culture medium to measure its effect on the growth of monkey kidney epithelial cells as described herein. […] A value termed the K1/2, was used.

The test system of assay [3] is BSC-1 cells. Nature of the assay: Time of contact with cells required to commit them to accelerated growth (washout, count at four days). The note with it: peptide then washed off, cells counted four days later. In kind it is cell-based, African green monkey. As to the method:
Confluent monolayers of BSC-1 cells are prepared as herein and exposed to the 14-Ser peptide (0.5 μg/ml) for different amounts of time (0 to 30 minutes). At the end of the defined exposure period, culture medium containing the mitogen was aspirated, the monolayer was rinsed to remove non-adherent peptide, and fresh medium was added. Four days later the number of cells in the culture was counted.
In these experiments a solution containing the peptide of interest was added to the cell monolayer; culture medium was then aspirated at a specified time thereafter. Then fresh medium without the peptide was added and the number of cells was counted four days later.

Assay [4] has as its system rats with mercuric chloride-induced acute renal failure. The assay is described as follows: Mercuric chloride-induced acute renal failure in rats: survival and renal function. In kind it is in vivo, rat. From the text: Nephrotoxic and ischemic acute renal failure (ARF) induced experimentally in rats have long been used to model this syndrome in humans. […] Male rats weighed 200-225 gm at the start of the experiment. This dose was used because preliminary experiments indicated it results in survival of 25-50% of the animals 7 days later. […] An increase in serum creatinine concentration signals a decline in renal function because the injured kidney is unable to excrete endogenous creatinine in the urine so it accumulates in the blood.
The synthetic peptide […] (14-Ser) (SEQ ID NO: 15) (dissolved in sterile 0.01% bovine serum albumin in phosphate-buffered saline) was injected subcutaneously into rats to determine its effect on survival, recovery of renal fucntion, and stimulation of DNA synthesis. Multiple different peptides were studied including 14-Ser, […] (14-mer) (SEQ ID NO: 39), […] (16-mer) (SEQ ID NO: 4) […] (11-mer) (SEQ ID NO: 6), and […] (11-mer) (SEQ ID NO: 41). Different concentrations and times of administration were tested and compared.
Acute tubular necrosis was induced in 44 rats by the subcutaneous (s.c.) injection of mercuric chloride, and a single dose of 14-ser was administered s.c. 1 hour afterwards. Different amounts of the peptide were given to assesses its capacity to affect the outcome. Survival 7 days later was about twice as high in animals given 100-150 μg of peptide (63%) than in rats given 0-75 μg peptide (29%).
To determine the effect of the peptide on survival and recovery of renal function, acute tubular necrosis was induced in 59 rats; 29 received 14-Ser (100 μg/rat) and 30 received an equal volume of the vehicle s.c. 1 hour after administration of mercuric chloride. Enhanced survival (top panel) and renal functional recovery (bottom panel) of rats give a WGF-derived peptide after mercuric chloride-induced acute tubular necrosis are shown in FIG. 2A and FIG. 2B. Mercuric chloride was injected subcutaneously into each of the 59 rats, and 1 hour later 100 μg of WGF peptide (14-Ser) (n=29 rats) or the vehicle […] was given. Survival was greater in rats given the peptide than in animals receiving the vehicle as early as day 3 after administration of mercuric chloride. Blood was obtained from the tail vein on the days indicated, and serum creatinine concentration was measured. […] On days 2, 3 and 4, the lower creatinine concentration in peptide-treated rats indicates accelerated recovery of kidney function.
Experimental ARF was induced in rats by subcutaneous injection of mercuric chloride. The synthetic peptide […] […] In one experiment a total of 17 rats were injected with a dose of mercuric chloride shown to induce ARF. The different amounts of the peptide (known to stimulate growth of kidney cells in culture) were injected into the animals to assess capacity to improve the outcome. […] In contrast, two of three rats given 100 micrograms of peptide were alive, as were five of six given 200 micrograms. In summary, none of eight rats (0%) given up to 50 micrograms of peptide survived, whereas seven of nine (78%) given 100-200 micrograms did. Thus, the 11-mer WGF peptide improves survival in nephrotoxic ARF.
[…] Four days later, 63% of rats given the 14-Ser peptide were alive compared to 25% of animals receiving the vehicle (chi squared, P-0.0499); 50% of rats receiving EGF were alive (chi squared, P=N.S.). On day 5, 50% of rats given EGF were alive, compared to 12.5% of animals given the vehicle (chi squared, P=0.0436). […] These observations indicate that the 14-Ser peptide and EGF given after renal injury are similar in their ability to improve survival from the ARF syndrome.

For `O=S(=O)(F)Cc1ccccc1` [PMSF, phenylmethylsulfonyl-fluoride], the “appearance of growth-promoting activity after wounding” value in the assay with BSC-1 cells [1] was “prevented”.
Same read-out and setting: under `Cc1ccc(S(=O)(=O)N[C@@H](CCCCN)C(=O)CCl)cc1.Cl` [TLCK, L-1-chloro-3-(4-tosylamido)-7-amino-2-heptanone-hydrochloride] stands “prevented”; under aprotinin, “prevented”.
For the molecule “epidermal growth factor [EGF, reference compound]”, in assay [2], the “concentration equivalent in mitogenic potency to partially-purified WGF” value was determined as 0.015 µg/mL. Besides, the “stimulation of growth (increase in cell number compared to control at four days)” value in assay [2] (agent alone at maximal mitogenic concentration (14-Ser 0.5 μg/ml; EGF, IGF-I 50 ng/ml; acidic FGF 100 pg/ml; basic FGF 1,000 pg/ml; vasopressin 75 pg/ml; K 10.4 mM; Na 180 mM)) worked out at 31%. The “combined mitogenic effect with WGF (additivity)” value in assay [2] (maximal concentrations, 11-mer with wound conditioned buffer) was “additive”. Also, the “stimulation of growth in the presence of the 14-Ser peptide” value in assay [2] (mitogenic signal at maximal concentration plus 14-Ser peptide 0.5 μg/ml, four days) came out at 61%. For the same molecule, the “exposure time sufficient for maximal growth stimulation (commitment time)” value in the assay with BSC-1 cells [3] is 4 min. The “survival on day 6” value in assay [4] (14-Ser 100 μg 1 hour after, EGF 20 μg 2 hours after mercuric chloride, vehicle 12%) is 37.5%. The “survival four days later” value in assay [4] (14-Ser 100 μg s.c. 1 hour after, EGF 20 μg s.c. 2 hours after mercuric chloride 2.25 mg/kg, vehicle 25%) is on record as 50%. For the same molecule, the “survival on day 5” value in assay [4] (EGF 20 μg s.c. 2 hours after mercuric chloride, vehicle 12.5%) was 50%. Also, the “survival on day 4” value in assay [4] (given 24 hours before mercuric chloride (EGF 20 μg, s.c.)) came to 25%.

B1: α2-macroglobulin (protein, UniProt P01023 24-1474, looked up)
Alpha-2-macroglobulin: SVSGKPQYMVLVPSLLHTETTEKGCVLLSYLNETVTVSASLESVRGNRSLFTDLEAENDVLHCVAFAVPKSSSNEEVMFLTVQVKGPTQEFKKRTTVMVKNEDSLVFVQTDKSIYKPGQTVKFRVVSMDENFHPLNELIPLVYIQDPKGNRIAQWQSFQLEGGLKQFSFPLSSEPFQGSYKVVVQKKSGGRTEHPFTVEEFVLPKFEVQVTVPKIITILEEEMNVSVCGLYTYGKPVPGHVTVSICRKYSDASDCHGEDSQAFCEKFSGQLNSHGCFYQQVKTKVFQLKRKEYEMKLHTEAQIQEEGTVVELTGRQSSEITRTITKLSFVKVDSHFRQGIPFFGQVRLVDGKGVPIPNKVIFIRGNEANYYSNATTDEHGLVQFSINTTNVMGTSLTVRVNYKDRSPCYGYQWVSEEHEEAHHTAYLVFSPSKSFVHLEPMSHELPCGHTQTVQAHYILNGGTLLGLKKLSFYYLIMAKGGIVRTGTHGLLVKQEDMKGHFSISIPVKSDIAPVARLLIYAVLPTGDVIGDSAKYDVENCLANKVDLSFSPSQSLPASHAHLRVTAAPQSVCALRAVDQSVLLMKPDAELSASSVYNLLPEKDLTGFPGPLNDQDNEDCINRHNVYINGITYTPVSSTNEKDMYSFLEDMGLKAFTNSKIRKPKMCPQLQQYEMHGPEGLRVGFYESDVMGRGHARLVHVEEPHTETVRKYFPETWIWDLVVVNSAGVAEVGVTVPDTITEWKAGAFCLSEDAGLGISSTASLRAFQPFFVELTMPYSVIRGEAFTLKATVLNYLPKCIRVSVQLEASPAFLAVPVEKEQAPHCICANGRQTVSWAVTPKSLGNVNFTVSAEALESQELCGTEVPSVPEHGRKDTVIKPLLVEPEGLEKETTFNSLLCPSGGEVSEELSLKLPPNVVEESARASVSVLGDILGSAMQNTQNLLQMPYGCGEQNMVLFAPNIYVLDYLNETQQLTPEIKSKAIGYLNTGYQRQLNYKHYDGSYSTFGERYGRNQGNTWLTAFVLKTFAQARAYIFIDEAHITQALIWLSQRQKDNGCFRSSGSLLNNAIKGGVEDEVTLSAYITIALLEIPLTVTHPVVRNALFCLESAWKTAQEGDHGSHVYTKALLAYAFALAGNQDKRKEVLKSLNEEAVKKDNSVHWERPQKPKAPVGHFYEPQAPSAEVEMTSYVLLAYLTAQPAPTSEDLTSATNIVKWITKQQNAQGGFSSTQDTVVALHALSKYGAATFTRTGKAAQVTIQSSGTFSSKFQVDNNNRLLLQQVSLPELPGEYSMKVTGEGCVYLQTSLKYNILPEKEEFPFALGVQTLPQTCDEPKAHTSFQISLSVSYTGSRSASNMAIVDVKMVSGFIPLKPTVKMLERSNHVSRTEVSSNHVLIYLDKVSNQTLSLFFTVLQDVPVRDLKPAIVKVYDYYETDEFAIAEYNAPCSKDLGNA
B1: in the assay with BSC-1 cells [1], the “appearance of growth-promoting activity after wounding” value was “prevented”.
